Assay results reported in patent US12202827B2, “Aldosterone synthase inhibitor” (DAMIAN PHARMA AG, priority 2016, dated 2025).
Where two headings read alike, the source gives them in different places.

What was measured:
[1] = Method: The X-ray powder diffraction studies were performed using a Bruker AXS D2 PHASER in Bragg-Brentano configuration. Using a Cu anode at 30 kV, 10 mA; sample stage standard rotating; monochromatisation by a Kβ-filter (0.5% Ni). Slits: fixed divergence slits 1.0 mm (=0.61°), primary axial Soller slit 2.5°, secondary axial Soller slit 2.5°. Detector: Linear detector LYNXEYE with receiving slit 5° detector opening. […] Measurement conditions: scan range 5 to 45° 2theta, sample rotation 5 rpm, 0.5 s/step, 0.010°/step, 3.0 mm detector slit; and all measuring conditions were logged in the instrument control file. As system suitability, corundum sample A26-826-S(NIST standard) was measured daily.
[2] = Hygroscopicity, open flasks in unconditioned ambient air for 24 hours; settings: open flask; for Hygroscopicity (assessment in words): ambient air; for Absolute weight / Weight increase: room temperature, unconditioned ambient air
Remark: listed apart in the source
[3] = Dynamic Vapour Sorption (DVS); assay type: physicochemical
Method: The Dynamic Vapour Sorption (DVS) studies were performed using a Surface Measurement Systems Ltd. DVS-1 No Video. The sample was loaded into a balance pan, typically 20-30 mg, and equilibrated at 0% RH. After the material was dried, the RH was increased with 10% per step for 1 hour per increment, ending at 95% RH. After completion of the sorption cycle, the sample was dried using the same method. The software used for data collection was DVSWin v3.01 No Video. Data analysis was performed using DVS Standard Analysis Suite v6.3.0 (Standard).

[4] = up to 225° C., TGA/DSC
Method: The thermogravimetric analysis and differential scanning calorimetry (TGA/DSC) studies were performed using a Mettler Toledo TGA/DSC1 STARe System with a 34-position auto sampler. The samples were made using Al crucibles (40 μL; pierced). Typically 5-10 mg of sample was loaded into a pre-weighed Al crucible and was kept at 30° C. for 5 minutes, after which it was heated at 10° C./min from 30° C. to 350° C. A nitrogen purge of 40 ml/min was maintained over the sample. The software used for data collection and evaluation was STARe Software v12.10 build 5937. No corrections were applied to the thermogram.

[5] = Shake-flask solubility study; settings: 20° C.
[6] = Solid state characterization of salts obtained as solids; assay type: physicochemical
[7] = not given; remark: listed apart in the source
[8] = literature; cited from earlier work
[9] = Acetic acid, sample DF1181-5-S11
[10] = Acetonitrile, sample DF1181-5-S7
[11] = Dichloromethane, sample DF1181-5-S2
[12] = Ethyl acetate, sample DF1181-5-S5
[13] = Methyl tert-butyl ether, sample DF1181-5-S3

SMILES: N#Cc1ccc([C@H]2CCCc3cncn32)cc1.O=P(O)(O)O
- XRPD after solubility determination [1, 9]: Amorphous
- XRPD after solubility determination ([1]; Acetone, sample DF1181-5-S4): Form I-Conform starting material
- XRPD after solubility determination [1, 10]: Form I-Conform starting material
- XRPD after solubility determination [1, 11]: Form I-Conform starting material
- XRPD after solubility determination ([1]; Ethanol, sample DF1181-5-S6): Form I-Conform starting material
- XRPD after solubility determination [1, 12]: Form I-Conform starting material
- XRPD after solubility determination ([1]; Methanol, sample DF1181-5-S1): Form I-Conform starting material
- XRPD after solubility determination [1, 13]: Form I-Conform starting material
- XRPD after solubility determination ([1]; Toluene, sample DF1181-5-S10): Form I-Conform starting material
- XRPD after solubility determination ([1]; Water, sample DF1181-5-S9): Form I-Conform starting material
- XRPD after solubility determination ([1]; n-Heptane, sample DF1181-5-S8): Form I-Conform starting material
- Hygroscopicity (assessment in words) [2]: non-hygroscopic
- Absolute weight [2]: 103.9 mg
- Weight increase ([2]; listed as Phosphate Salt): 0.57%
- XRPD (polymorphic form) (wells 1-6, solvent Formic acid, co-solvent Water): Form I
- XRPD (polymorphic form) (wells 7-12, solvent 2-Butanone, co-solvent n-Heptane): Form I
- XRPD (polymorphic form) (wells 13-18, solvent Acetic acid, co-solvent Water): Form I
- XRPD (polymorphic form) (wells 19-24, solvent Cyclohexanone, co-solvent n-Heptane): Form I
- XRPD (polymorphic form) (wells 25-30, solvent Methanol, co-solvent Water): Form I
- XRPD (polymorphic form) (wells 31-36, solvent Ethylacetate, co-solvent n-Heptane): Form I
- XRPD (polymorphic form) (wells 37-42, solvent Ethanol, co-solvent Water): Form I
- XRPD (polymorphic form) (wells 43-48, solvent Isopropyl acetate, co-solvent n-Heptane): Form I
- XRPD (polymorphic form) (wells 49-54, solvent 2-Propanol, co-solvent Water): Form I
- XRPD (polymorphic form) (wells 55-60, solvent Cyclopentyl methyl ether, co-solvent n-Heptane): Form I
- XRPD (polymorphic form) (wells 61-66, solvent Acetone, co-solvent Water): Form I
- XRPD (polymorphic form) (wells 67-72, solvent Toluene, co-solvent n-Heptane): Form I
- XRPD (polymorphic form) (wells 79-84, solvent Cyclohexane, co-solvent n-Heptane): Form I
- XRPD (polymorphic form) (wells 85-90, solvent Tetrahydrofuran, co-solvent Water): Form I
- XRPD (polymorphic form) (wells 91-96, solvent Chlorobenzene, co-solvent n-Heptane): Form I
- Reversibility of water uptake ([3]; DVS sorption/desorption cycles): reversible
- Crystalline form upon DVS treatment (XRPD) ([3]; before and after DVS cycles): does not change
- Mass loss upon heating [4]: 1.4%
- Solubility [5, 9]: 118 to 1180 mg/mL
- Solubility ([5]; Acetone, sample DF1181-5-S4): <0.09 mg/mL
- Solubility [5, 10]: <0.11 mg/mL
- Solubility [5, 11]: <0.10 mg/mL
- Solubility ([5]; Ethanol, sample DF1181-5-S6): 0.1 to 1.0 mg/mL
- Solubility [5, 12]: <0.09 mg/mL
- Solubility ([5]; Methanol, sample DF1181-5-S1): 112 to 1120 mg/mL
- Solubility [5, 13]: <0.11 mg/mL
- Solubility ([5]; Toluene, sample DF1181-5-S10): <0.10 mg/mL
- Solubility ([5]; Water, sample DF1181-5-S9): >1000 mg/mL
- Solubility ([5]; n-Heptane, sample DF1181-5-S8): <0.11 mg/mL
- Crystallinity [6]: good
- Hygroscopicity (DVS) [6]: low
- Polymorph tendency (XRPD) [6]: Not observed
- Solid phase transition (XRPD) [6]: Not observed
- Solvation [6]: anhydrous
- Water solubility [6]: good
- Appearance ([7]; 25° C./60% RH, 1 month): White
- Chiral Purity ([7]; 25° C./60% RH, 1 month): >99.5
- Polymorph by XRPD ([7]; 25° C./60% RH, 1 month): Conform
- Purity by HPLC ([7]; 25° C./60% RH, 1 month): 99.77
- Water content ([7]; 25° C./60% RH, 1 month): 0.2
- Appearance ([7]; 25° C./60% RH, 3 months): White
- Chiral Purity ([7]; 25° C./60% RH, 3 months): >99.5
- Polymorph by XRPD ([7]; 25° C./60% RH, 3 months): Conform
- Purity by HPLC ([7]; 25° C./60% RH, 3 months): 99.81
- Water content ([7]; 25° C./60% RH, 3 months): 0.2
- Appearance ([7]; 25° C./60% RH, 6 months): White
- Chiral Purity ([7]; 25° C./60% RH, 6 months): >99.5
- Polymorph by XRPD ([7]; 25° C./60% RH, 6 months): Conform
- Purity by HPLC ([7]; 25° C./60% RH, 6 months): 99.82
- Water content ([7]; 25° C./60% RH, 6 months): 0.2
- Appearance ([7]; 25° C./60% RH, 9 months): White
- Chiral Purity ([7]; 25° C./60% RH, 9 months): >99.5
- Polymorph by XRPD ([7]; 25° C./60% RH, 9 months): Conform
- Purity by HPLC ([7]; 25° C./60% RH, 9 months): 99.84
- Water content ([7]; 25° C./60% RH, 9 months): 0.2
- Appearance ([7]; 25° C./60% RH, 12 months): White
- Chiral Purity ([7]; 25° C./60% RH, 12 months): >99.5
- Polymorph by XRPD ([7]; 25° C./60% RH, 12 months): Conform
- Purity by HPLC ([7]; 25° C./60% RH, 12 months): 99.81
- Water content ([7]; 25° C./60% RH, 12 months): 0.3
- Appearance ([7]; 25° C./60% RH, Initial): White
- Chiral Purity ([7]; 25° C./60% RH, Initial): >99.5
- Polymorph by XRPD ([7]; 25° C./60% RH, Initial): Conform
- Purity by HPLC ([7]; 25° C./60% RH, Initial): 99.87
- Water content ([7]; 25° C./60% RH, Initial): 0.3
- Appearance ([7]; 30° C./65%RH, 1 month): White
- Chiral Purity ([7]; 30° C./65%RH, 1 month): >99.5
- Polymorph by XRPD ([7]; 30° C./65%RH, 1 month): Conform
- Purity by HPLC ([7]; 30° C./65%RH, 1 month): 99.76
- Water content ([7]; 30° C./65%RH, 1 month): 0.2
- Appearance ([7]; 30° C./65%RH, 3 months): White
- Chiral Purity ([7]; 30° C./65%RH, 3 months): >99.5
- Polymorph by XRPD ([7]; 30° C./65%RH, 3 months): Conform
- Purity by HPLC ([7]; 30° C./65%RH, 3 months): 99.81
- Water content ([7]; 30° C./65%RH, 3 months): 0.3
- Appearance ([7]; 30° C./65%RH, 6 months): White
- Chiral Purity ([7]; 30° C./65%RH, 6 months): >99.5
- Polymorph by XRPD ([7]; 30° C./65%RH, 6 months): Conform
- Purity by HPLC ([7]; 30° C./65%RH, 6 months): 99.84
- Water content ([7]; 30° C./65%RH, 6 months): 0.2
- Appearance ([7]; 30° C./65%RH, 9 months): White
- Chiral Purity ([7]; 30° C./65%RH, 9 months): >99.5
- Polymorph by XRPD ([7]; 30° C./65%RH, 9 months): Conform
- Purity by HPLC ([7]; 30° C./65%RH, 9 months): 99.86
- Water content ([7]; 30° C./65%RH, 9 months): 0.2
- Appearance ([7]; 30° C./65%RH, 12 months): White
- Chiral Purity ([7]; 30° C./65%RH, 12 months): >99.5
- Polymorph by XRPD ([7]; 30° C./65%RH, 12 months): Conform
- Purity by HPLC ([7]; 30° C./65%RH, 12 months): 99.85
- Water content ([7]; 30° C./65%RH, 12 months): 0.3
- Appearance ([7]; 30° C./65%RH, Initial): White
- Chiral Purity ([7]; 30° C./65%RH, Initial): >99.5
- Polymorph by XRPD ([7]; 30° C./65%RH, Initial): Conform
- Purity by HPLC ([7]; 30° C./65%RH, Initial): 99.87
- Water content ([7]; 30° C./65%RH, Initial): 0.3
- Appearance ([7]; 40° C./75% RH, 1 month): White
- Chiral Purity ([7]; 40° C./75% RH, 1 month): >99.5
- Polymorph by XRPD ([7]; 40° C./75% RH, 1 month): Conform
- Purity by HPLC ([7]; 40° C./75% RH, 1 month): 99.80
- Water content ([7]; 40° C./75% RH, 1 month): 0.3
- Appearance ([7]; 40° C./75% RH, 3 months): White
- Chiral Purity ([7]; 40° C./75% RH, 3 months): >99.5
- Polymorph by XRPD ([7]; 40° C./75% RH, 3 months): Conform
- Purity by HPLC ([7]; 40° C./75% RH, 3 months): 99.79
- Water content ([7]; 40° C./75% RH, 3 months): 0.5
- Appearance ([7]; 40° C./75% RH, 6 months): White
- Chiral Purity ([7]; 40° C./75% RH, 6 months): >99.5
- Polymorph by XRPD ([7]; 40° C./75% RH, 6 months): Conform
- Purity by HPLC ([7]; 40° C./75% RH, 6 months): 99.88
- Water content ([7]; 40° C./75% RH, 6 months): 0.3
- Appearance ([7]; 40° C./75% RH, Initial): White
- Chiral Purity ([7]; 40° C./75% RH, Initial): >99.5
- Polymorph by XRPD ([7]; 40° C./75% RH, Initial): Conform
- Purity by HPLC ([7]; 40° C./75% RH, Initial): 99.87
- Water content ([7]; 40° C./75% RH, Initial): 0.3
- Long-term stability (purity, water content, chiral purity), in words ([7]; all assessed stability conditions and time periods): very stable

SMILES: Cl.N#Cc1ccc([C@H]2CCCc3cncn32)cc1
- Hygroscopicity (assessment in words) [2]: significant hygroscopicity
- Absolute weight [2]: 113.2 mg
- Weight increase [2]: 13.1%
- Weight increase ([2]; listed as Chloride Salt): 13.1%
- Hygroscopicity (in words) [8]: highly hygroscopic
